Assays:
JAK2 kinase domain (JH1) = JAK2 kinase domain (JH1) (Homo sapiens (Human), UniProt O60674); experiment: JAK2 Radioactive Kinase Assay; type: biochemical; conditions: compound at 10 μM; ATP at 10 μM; substrate poly[Glu:Tyr](4:1)
Experimental: (§1) Peptide substrate, [KKSRGDYMTMQIG], (20 μM) was prepared in reaction buffer (20 mM Hepes pH 7.5, 10 mM MgCl2, 1 mM EGTA, 0.02% Brij35, 0.02 mg/mL BSA, 0.1 mM […], 2 mM DTT, 1% DMSO). TYK2 (Invitrogen) kinase was added, followed by compounds in DMSO. ^33PATP was added to initiate the reaction in ATP at 10 μM. The kinase reaction was incubated for 120 min at room temp and reactions were spotted onto P81 ion exchange paper (Whatman #3698-915), and then washed extensively in 0.75% phosphoric acid, prior to reading the radioactivity counts. For JAK2 (Invitrogen) kinase assay the peptide substrate poly[Glu:Tyr](4:1), 0.2 mg/ml was used, in the reaction carried out the same as for TYK2.
(§2) The TYK2 and JAK2 radioactive kinase assay measures the percent inhibition at the TYK2 kinase domain (JH1) and the percent inhibition at the JAK2 kinase domain (JH1). Results of the assay are expressed as percent inhibition at 10 μM.

TYK2 kinase domain (JH1) = TYK2 kinase domain (JH1) (Homo sapiens (Human), UniProt P29597); experiment: TYK2 Radioactive Kinase Assay; type: biochemical; conditions: compound at 10 μM; ATP at 10 μM; 120 min at room temp
Sequence of TYK2 kinase domain (JH1) (P29597 897-1176): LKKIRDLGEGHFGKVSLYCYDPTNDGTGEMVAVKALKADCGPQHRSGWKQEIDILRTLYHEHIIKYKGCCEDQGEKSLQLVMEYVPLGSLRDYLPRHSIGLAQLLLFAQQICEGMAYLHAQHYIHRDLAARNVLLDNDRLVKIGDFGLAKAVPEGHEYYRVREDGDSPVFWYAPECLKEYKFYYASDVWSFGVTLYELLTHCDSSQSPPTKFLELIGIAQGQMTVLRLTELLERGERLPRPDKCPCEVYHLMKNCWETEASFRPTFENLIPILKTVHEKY
Experimental: as §1, §2

[1] = test system: IL-12 induced STAT4 phophorylation mediated by TYK2/JAK2 (heterodimeric complex); experiment: IL-12 Induced pSTAT4 in Human PBMC; type: cell-based; conditions: 1.7 ng/mL IL-12 for 30 minutes, 1 hr compound preincubation
Experimental: (§3) Human PBMC were isolated from buffy coat and were stored frozen for assays as needed. Cells for assay were thawed and resuspended in complete media containing serum, then cells were diluted to 1.67 E6 cells/mL so that 120 μl per well is 200,000 cells. 15 μl of compound or DMSO was added to the well at the desired concentrations and incubated at 1 hr at 37 C. 15 μl of stimulus (final concentration of 1.7 ng/mL IL-12) was added for 30 minutes prior to pSTAT4 and total STAT4 analysis using cell lysates prepared and analyzed by MSD reagents as per manufacturer protocol. The final DMSO concentration of compound in the assay was 0.1%.
The IL-12 Induced pSTAT4 assay evaluates the inhibition of IL-12 induced STAT4 phophorylation mediated by TYK2/JAK2 (heterodimeric complex).

[2] = test system: GM-CSF induced STAT5 phopsphorylation mediated by the JAK2/JAK2 homodimeric complex; experiment: GM-CSF Induced pSTAT5 in Human PBMC; type: cell-based; conditions: 20 min, GM-CSF 5 ng/mL for 20 minutes, read-out: PBMC_GMCSF_pSTAT5 IC50
Experimental: as §3
Cells were prepared for analysis as in the above procedure and 15 μl of GM-CSF (final concentration 5 ng/mL) was added for 20 minutes prior to pSTAT5 and total STAT5 analysis using cell lysates prepared and analyzed by MSD reagents as per manufacturer protocol. The final DMSO concentration of compound in the assay was 0.1%.
The GM-CSF Induced pSTAT5 assay is a JAK2 cellular selectivity assay which evaluates inhibition of GM-CSF induced STAT5 phopsphorylation mediated by the JAK2/JAK2 homodimeric complex.

[3] = molecular target: human TYK2 (JH2domain-pseudokinase) (Homo sapiens (Human), UniProt P29597); experiment: TYK2 JH2 Domain Binding Assay (KINOMEscan); conditions: 11-point 3-fold dilution, top concentration 30,000 nM, duplicate
Sequence of human TYK2 (JH2domain-pseudokinase) (P29597 556-888): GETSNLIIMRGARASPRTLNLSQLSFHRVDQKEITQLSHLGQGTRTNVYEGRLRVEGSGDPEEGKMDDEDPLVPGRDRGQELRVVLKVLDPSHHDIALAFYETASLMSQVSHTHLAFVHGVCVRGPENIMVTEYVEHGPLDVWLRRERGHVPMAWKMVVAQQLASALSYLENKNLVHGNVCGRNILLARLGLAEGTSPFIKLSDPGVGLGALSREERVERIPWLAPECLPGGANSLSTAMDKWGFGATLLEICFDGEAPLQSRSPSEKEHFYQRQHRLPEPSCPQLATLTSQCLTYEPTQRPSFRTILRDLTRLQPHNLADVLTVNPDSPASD
Procedure, shortened: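 Competition binding used an NFkB-DNA-tagged fusion of TYK2 JH2 (G556–D888) expressed in HEK293 extracts against an immobilised ligand, 1 h at room temperature. Bead-bound kinase was quantified by qPCR. Kd came from an 11-point 3-fold series with a 30,000 nM top concentration and 0.9% DMSO, Hill slope −1, run in duplicate.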

Sequence of JAK2 kinase domain (JH1) (O60674 849-1124): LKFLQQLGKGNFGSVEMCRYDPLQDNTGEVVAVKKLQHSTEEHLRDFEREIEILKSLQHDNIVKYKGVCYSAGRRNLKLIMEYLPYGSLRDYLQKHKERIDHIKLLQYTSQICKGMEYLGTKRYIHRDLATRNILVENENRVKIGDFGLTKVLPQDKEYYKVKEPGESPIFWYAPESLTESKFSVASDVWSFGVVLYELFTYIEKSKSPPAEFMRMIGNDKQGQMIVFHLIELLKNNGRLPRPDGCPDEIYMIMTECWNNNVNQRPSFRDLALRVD

SMILES	inhibition at 10 µM (JAK2 kinase domain (JH1)) [%]	inhibition at 10 µM (TYK2 kinase domain (JH1)) [%]	IC50 [1] [nM]	IC50 [2] [nM]	Kd [3] [nM]
CNC(=O)c1cnc(NC(=O)C2CC2)c2[nH]c(-c3ccccc3)cc12 [Compound I-1, 7-(cyclopropanecarboxamido)-N-methyl-2-phenyl-1H-pyrrolo[2,3-c]pyridine-4-carboxamide]	< 50	< 50	500 to 1000	> 50000	1 to 10
CNC(=O)c1cnc(NC(=O)C2CC2)c2[nH]c(-c3cccc(-c4ncn(C)n4)c3)cc12 [Compound I-2, 7-(cyclopropanecarboxamido)-N-methyl-2-(3-(1-methyl-1H-1,2,4-triazol-3-yl)phenyl)-1H-pyrrolo[2,3-c]pyridine-4-carboxamide]	< 50	< 50	< 100	> 50000	< 0.2
CNC(=O)c1cnc(NC(=O)C2CC2)c2[nH]c(-c3ccccc3N3CCCS3(=O)=O)cc12 [Compound I-4, 7-(cyclopropanecarboxamido)-2-(2-(1,1-dioxidoisothiazolidin-2-yl)phenyl)-N-methyl-1H-pyrrolo[2,3-c]pyridine-4-carboxamide]	< 50	< 50	< 100	> 12500	< 0.2
Cn1cnc(-c2cccc(-c3cc4c(C(N)=O)cnc(NC(=O)C5CC5)c4[nH]3)c2)n1 [Compound I-12, 7-(cyclopropanecarboxamido)-2-(3-(1-methyl-1H-1,2,4-triazol-3-yl)phenyl)-1H-pyrrolo[2,3-c]pyridine-4-carboxamide]	> 90	> 90	< 100	> 300	< 0.2
CNC(=O)c1cnc(NC(=O)C2CC2)c2[nH]c(-c3cccc(-c4cnn(C)c4)c3F)cc12 [Compound I-19, 7-(cyclopropanecarboxamido)-2-(2-fluoro-3-(1-methyl-1H-pyrazol-4-yl)phenyl)-N-methyl-1H-pyrrolo[2,3-c]pyridine-4-carboxamide]	< 50	< 50	< 100	> 300	< 0.2
CNC(=O)c1cnc(NC(=O)C2CC2)c2[nH]c(-c3cccc(-c4ncco4)c3F)cc12 [Compound I-23, 7-(cyclopropanecarboxamido)-2-(2-fluoro-3-(oxazol-2-yl)phenyl)-N-methyl-1H-pyrrolo[2,3-c]pyridine-4-carboxamide]	< 50	< 50	< 100	> 50000	< 0.2
CNC(=O)c1cnc(NC(=O)C2CC2)c2[nH]c(-c3ccc(C(=O)N4CCC4)cc3OC)cc12 [Compound I-24, 2-(4-(azetidine-1-carbonyl)-2-methoxyphenyl)-7-(cyclopropanecarboxamido)-N-methyl-1H-pyrrolo[2,3-c]pyridine-4-carboxamide]	< 50	< 50	< 100	–	< 0.2
CNC(=O)c1cnc(NC(=O)C2CC2)c2[nH]c(-c3ccc(=O)n(C4CC4)c3)cc12 [Compound I-40, 7-(cyclopropanecarboxamido)-2-(1-cyclopropyl-6-oxo-1,6-dihydropyridin-3-yl)-N-methyl-1H-pyrrolo[2,3-c]pyridine-4-carboxamide]	< 50	< 50	–	–	1 to 10
CNC(=O)c1cnc(NC(=O)C2CC2)c2[nH]c(-c3ccc(C(=O)N4CCC4)cc3F)cc12 [Compound I-42, 2-(4-(azetidine-1-carbonyl)-2-fluorophenyl)-7-(cyclopropanecarboxamido)-N-methyl-1H-pyrrolo[2,3-c]pyridine-4-carboxamide]	–	–	< 100	–	< 0.2
CNC(=O)c1cnc(NC(=O)C2CC2)c2[nH]c(-c3cccc(-c4cn(C)cn4)c3F)cc12 [Compound I-48, 7-(cyclopropanecarboxamido)-2-(2-fluoro-3-(1-methyl-1H-imidazol-4-yl)phenyl)-N-methyl-1H-pyrrolo[2,3-c]pyridine-4-carboxamide]	–	–	< 100	–	< 0.2
CNC(=O)c1cnc(NC(=O)C2CC2)c2[nH]c(-c3cccc(-c4nnn(C)n4)c3F)cc12 [Compound I-52, 7-(cyclopropanecarboxamido)-2-(2-fluoro-3-(2-methyl-2H-tetrazol-5-yl)phenyl)-N-methyl-1H-pyrrolo[2,3-c]pyridine-4-carboxamide]	–	–	< 100	–	< 0.2
CNC(=O)c1cnc(NC(=O)C2CC2)c2[nH]c(-c3cccn(-c4ncc(C)s4)c3=O)cc12 [Compound I-54, 7-(cyclopropanecarboxamido)-N-methyl-2-(1-(5-methylthiazol-2-yl)-2-oxo-1,2-dihydropyridin-3-yl)-1H-pyrrolo[2,3-c]pyridine-4-carboxamide]	–	–	100 to 500	–	< 0.2
